In US8076457B2, “Crystal of a cytochrome-ligand complex and methods of use” (The Scripps Research Institute, priority 2005, dated 2011):

Legend:
CYP2A6dH [1] = biological target: T1, CYP2A6dH (Homo sapiens, UniProt P11509, Q458E); assay: binding constants by visible difference spectroscopy (low spin to high spin conversion); conditions: for spectral change on binding to the purified enzyme: spectral titration, UV-visible
T1 construct: expressing residues 29-494 of the catalytic domain without internal modifications; 4xHis (C); made in house; host or cells: Escherichia coli
T1 sequence (P11509 with tags, fused parts or gaps Q458E): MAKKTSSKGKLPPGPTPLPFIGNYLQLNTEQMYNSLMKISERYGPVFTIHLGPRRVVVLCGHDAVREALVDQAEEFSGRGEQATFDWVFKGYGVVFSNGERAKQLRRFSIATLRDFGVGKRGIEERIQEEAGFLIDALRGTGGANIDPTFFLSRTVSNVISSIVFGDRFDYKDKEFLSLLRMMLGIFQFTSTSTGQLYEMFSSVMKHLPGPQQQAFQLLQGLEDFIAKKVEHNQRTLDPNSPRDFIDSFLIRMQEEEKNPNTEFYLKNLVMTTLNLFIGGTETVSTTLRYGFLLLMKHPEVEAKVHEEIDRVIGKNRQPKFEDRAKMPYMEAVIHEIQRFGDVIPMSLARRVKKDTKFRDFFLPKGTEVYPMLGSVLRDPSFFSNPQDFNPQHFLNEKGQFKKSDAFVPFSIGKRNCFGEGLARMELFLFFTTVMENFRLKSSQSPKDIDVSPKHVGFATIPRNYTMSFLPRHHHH
Description: Purified CYP2A6dH was diluted to ˜3 μM in 50 mM KPi pH 7.4, 500 mM NaCl, 20% glycerol, 1 mM EDTA (referred to as XB) in a 1-cm path length microcuvette. […] The total concentration of methanol remained under 1%. Binding was monitored as the absorbance difference, ΔA, between the peak (˜385 nm) and trough (˜417 nm) of the difference spectrum. The apparent binding constant, Ks, and the extrapolated maximum spectral change, ΔAmax, were estimated from nonlinear least-squares regression fitting using the following equation:
[formula] where S is the total concentration of ligand and P is the total concentration of P450.

CYP2A6dH [2] = biological target: T1, CYP2A6dH; assay: coumarin 7-hydroxylation by purified CYP2A6dH reconstituted with P450 reductase; format: biochemical
Source text: In this example, to determine catalytic properties for the purified protein, CYP2A6dH was reconstituted with E. coli-expressed purified human reductase in the absence of L-α-dilauroyl-L-α-lecithin with slight modifications to the protocol described by Tan et al. (Competitive interactions between CYP2A6 and cytochrome P450 2E1 for NADPH-cytochrome P450 oxidoreductase in the microsomal membranes produced by a baculovirus expression system. Arch. Biochem. Biophys. 342, 82-91 (1997)). 10 pmol CYP2A6dH was incubated on ice for 10 min. with 0.06 U human reductase at a ratio of 1:6, CYP2A6dH to reductase in a final volume of 10 μl. 1.2 benzopyrone at concentrations ranging from 25 μM to 2.5 mM were then added in […] aliquots, along with 430 μL of 50 mM Tris pH 7.4. The reaction mixture was allowed to equilibrate at 37° C. for 3 min. To start the reaction, 50 μl of an NADPH regeneration system (50 mM isocitrate, 50 mM MgCl2, 5 U/ml isocitrate dehydrogenase and 10 mM NADPH) was added. The reaction was allowed to proceed for 5 min., and stopped by addition of 100 μl of cold 20% trichloroacetic acid. The components were centrifuged at 13,000 rpm. 10 μl of the supernatant was removed and added to 190 μl 100 mM Tris buffer, pH 9.0. the coumarin content was quantified fluorometrically (excitation at 368 nm and emission at 453 nm).

[3] = biological target: T2, full length wild-type CYP2A6 (Homo sapiens, UniProt P11509); conditions: microsomal preparations from a panel of 12 human liver microsomes, cited from earlier work
T2 construct: for full length wild-type CYP2A6 in microsomal preparations; host or cells: human liver microsomes (panel of 12)
T2 sequence (P11509 1-494): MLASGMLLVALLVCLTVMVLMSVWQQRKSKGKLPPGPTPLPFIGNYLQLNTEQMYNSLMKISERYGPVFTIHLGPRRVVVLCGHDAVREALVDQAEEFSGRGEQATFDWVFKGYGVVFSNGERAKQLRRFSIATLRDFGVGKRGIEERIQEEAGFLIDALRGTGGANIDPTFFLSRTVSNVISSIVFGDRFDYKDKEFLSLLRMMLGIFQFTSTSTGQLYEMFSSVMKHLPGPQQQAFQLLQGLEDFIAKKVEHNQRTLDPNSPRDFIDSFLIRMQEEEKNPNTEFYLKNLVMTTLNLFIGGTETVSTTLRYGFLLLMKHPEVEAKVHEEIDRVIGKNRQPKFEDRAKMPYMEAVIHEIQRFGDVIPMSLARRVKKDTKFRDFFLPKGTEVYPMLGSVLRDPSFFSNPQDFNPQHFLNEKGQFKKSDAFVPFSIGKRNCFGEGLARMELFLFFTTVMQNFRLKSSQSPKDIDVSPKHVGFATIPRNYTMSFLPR

Row | spectral change on binding to the purified enzyme (CYP2A6dH [1]) | Km (CYP2A6dH [2]) [µM] | Vmax for coumarin 7-hydroxylation (CYP2A6dH [2]) [nmols/min/nmol P450] | Kd (CYP2A6dH [1]; substrate dependent conversion to high spin ferric heme protein, read-out: Dissociation constant for binding to purified CYP2A6dH) [nM] | SMILES | Vmax of coumarin hydroxylation (mean value) [3] [nmols/min/nmol P450] | Km ([3]; read-out: Km of coumarin hydroxylation (mean value)) [µM]
1 | type I spectral change |  |  |  | COc1c2occc2cc2ccc(=O)oc12 [methoxsalen, 8-methoxypsoralen] |  | 
2 | type I spectral change | 0.23 ± 0.03 | 10.83±1.38 | 270 | O=c1ccc2ccccc2o1 [coumarin, 1,2-benzopyrone] | 6.34 | 0.4
